{"source": "PubChem BioAssay AID1259409", "about": "(Chemical Carcinogenesis Research Information System (CCRIS), 2018)", "origin": "cited, not measured here", "tested_on": "rodent chemically induced tumor inhibition, incidence and multiplicity", "assay": "CCRIS tumor inhibitor studies"}
{"smiles": "NCC(CC(=O)O)c1ccc(Cl)cc1", "note": "(stereo not given)", "values": [{"measurement": "tumour outcome (control, treated, inhibition, significance)", "setting": "Carcinogen: N-METHYL-N'-NITRO-N-NITROSOGUANIDINE, 70-25-7, Dose [Inhibitor]: 0, 4 MG/KG IN NACL INJECTED 1/2 D FOR DURATION OF STUDY BEGINNING 1 WK POST CARCINOGEN DOSE (STUDY DURATION: 52 WK), Route [Inhibitor]: INTRAPERITONEAL, Species: RAT, Strain/Sex: WISTAR/MALE, Target Tissue: Type of Lesion: STOMACH: ADENOCARCINOMA, Dose [Carcinogen]: 50 UG/ML IN DRINKING WATER FOR 25 WK, Promoter: NONE USED", "value": "13/19 (68%), 5/20 (25%), 63%, not calculated"}, {"measurement": "tumour outcome (control, treated, inhibition, significance)", "setting": "Carcinogen: N-METHYL-N'-NITRO-N-NITROSOGUANIDINE, 70-25-7, Dose [Inhibitor]: 0, 8 MG/KG BW 1/2 D FOR 25 WK BEGINNING POST CARCINOGEN TREATMENT (STUDY DURATION: 52 WK), Route [Inhibitor]: SUBCUTANEOUS, Species: RAT, Strain/Sex: WISTAR/MALE, Target Tissue: Type of Lesion: STOMACH: TUMOR, Dose [Carcinogen]: 50 UG/ML IN DRINKING WATER FOR 25 WK, Promoter: NONE USED", "value": "19/20 (95%), 10/20 (50%), 47%, p<0.001"}, {"measurement": "tumour outcome (control, treated, inhibition, significance)", "setting": "Carcinogen: N-METHYL-N'-NITRO-N-NITROSOGUANIDINE, 70-25-7, Dose [Inhibitor]: 0, 8 MG/KG IN NACL INJECTED 1/2 D FOR DURATION OF STUDY BEGINNING 1 WK POST CARCINOGEN DOSE (STUDY DURATION: 52 WK), Route [Inhibitor]: INTRAPERITONEAL, Species: RAT, Strain/Sex: WISTAR/MALE, Target Tissue: Type of Lesion: STOMACH: ADENOCARCINOMA, Dose [Carcinogen]: 50 UG/ML IN DRINKING WATER FOR 25 WK, Promoter: NONE USED", "value": "13/19 (68%), 5/18 (28%), 59%, not calculated"}, {"measurement": "tumour outcome (control, treated, inhibition, significance)", "setting": "Carcinogen: N-METHYL-N'-NITRO-N-NITROSOGUANIDINE, 70-25-7, Dose [Inhibitor]: 0, 8 MG/KG/BW SUSPENSION IN OLIVE OIL 1/2 D BEGINNING POST CARCINOGEN TREATMENT AND CONTINUING FOR DURATION OF STUDY (ST, Route [Inhibitor]: SUBCUTANEOUS, Species: RAT, Strain/Sex: WISTAR/MALE, Target Tissue: Type of Lesion: STOMACH: ADENOCARCINOMA, Dose [Carcinogen]: 50 UG/ML IN DRINKING WATER FOR 25 WK, Promoter: NONE USED", "value": "16/20 (80%), 8/20 (40%), 50%, p<0.05"}]}
{"smiles": "C[C@]12CC[C@@H]3c4ccc(OC(=O)c5ccccc5)cc4CC[C@H]3[C@@H]1CC[C@@H]2O", "values": [{"measurement": "tumour outcome (control, treated, inhibition, significance)", "setting": "Carcinogen: 1,2-DIMETHYLHYDRAZINE DIHYDROCHLORIDE, 306-37-6, Dose [Inhibitor]: 0, 15 UG/KG IN PEANUT OIL ON DAYS 1 AND 3 OF STUDY THEN 1/WK FOR 30 WK (STUDY DURATION: 31 WK), Route [Inhibitor]: SUBCUTANEOUS, Species: RAT, Strain/Sex: SPRAGUE-DAWLEY/MALE, Target Tissue: Type of Lesion: COLON: ADENOCARCINOMA, Dose [Carcinogen]: 9 MG/KG 1/WK FOR 7 WK THEN 19.4 MG/KG 1/WK FOR 13 WK, Promoter: NONE USED", "value": "14/14 (100%), 14/14 (100%), 0%, not significant"}, {"measurement": "tumour outcome (control, treated, inhibition, significance)", "setting": "Carcinogen: 1,2-DIMETHYLHYDRAZINE DIHYDROCHLORIDE, 306-37-6, Dose [Inhibitor]: 0, 15 UG/KG IN PEANUT OIL ON DAYS 1 AND 3 OF STUDY THEN 1/WK FOR 30 WK (STUDY DURATION: 31 WK), Route [Inhibitor]: SUBCUTANEOUS, Species: RAT, Strain/Sex: SPRAGUE-DAWLEY/MALE, Target Tissue: Type of Lesion: SMALL INTESTINE: ADENOCARCINOMA, Dose [Carcinogen]: 9 MG/KG 1/WK FOR 7 WK THEN 19.4 MG/KG 1/WK FOR 13 WK, Promoter: NONE USED", "value": "13/14 (93%), 11/14 (79%), 15%, not significant"}]}
{"smiles": "CCOC(=O)/C=C(C)/C=C/C=C(C)/C=C/c1c(C)cc(O)c(C)c1C", "values": [{"measurement": "tumour outcome (control, treated, inhibition, significance)", "setting": "Carcinogen: 7,12-DIMETHYLBENZ[A]ANTHRACENE, 57-97-6, Dose [Inhibitor]: 140 NMOL IN 0.2 ML ACETONE 2/WK (D 1 AND D 4 OF EACH WK) 1 HR BEFORE EACH PROMOTER APPLICATION STARTING 14 D AFTER CARCI, Route [Inhibitor]: DERMAL, Species: MOUSE, Strain/Sex: CD-1/FEMALE, Target Tissue: Type of Lesion: SKIN: PAPILLOMA, Dose [Carcinogen]: 0.2 UMOL IN 0.2 ML ACETONE ONCE, Promoter: 12-O-TETRADECANOYLPHORBOL-13-ACETATE, 16561-29-8", "value": "90%, 95%, -6%, not significant"}]}
{"smiles": "CC(O)CCCCCC(=O)c1ccccc1", "note": "(stereo not given)", "values": [{"measurement": "tumour outcome (control, treated, inhibition, significance)", "setting": "Carcinogen: 4-(METHYLNITROSAMINO)-1-(3-PYRIDYL)-1-BUTANONE, 64091-91-4, Dose [Inhibitor]: 0, 25 UMOL IN 0.1 ML CORN OIL ONCE 2 HR PRIOR TO CARCINOGEN DOSE (STUDY DURATION: 16 WK), Route [Inhibitor]: GAVAGE, Species: MOUSE, Strain/Sex: STRAIN-A/FEMALE, Target Tissue: Type of Lesion: LUNG: ADENOMA, Dose [Carcinogen]: 10 UMOL IN 0.1 ML SALINE ONCE, Promoter: NONE USED", "value": "100%, 100%, 0%, not significant"}]}
{"smiles": "CC(/C=C/C=C(\\C)C(=O)O)=C\\C=C\\C=C(C)\\C=C\\C=C(/C)C(=O)O", "values": [{"measurement": "tumour outcome (control, treated, inhibition, significance)", "setting": "Carcinogen: BENZO[A]PYRENE, 50-32-8, Dose [Inhibitor]: 0, 0.2 UMOL IN 0.2 ML ACETONE 2/WK FOR 20 WK ADMINISTERED CONCURRENTLY WITH PROMOTER (STUDY DURATION: 21 WK), Route [Inhibitor]: DERMAL, Species: MOUSE, Strain/Sex: CD-1/FEMALE, Target Tissue: Type of Lesion: SKIN: PAPILLOMA, Dose [Carcinogen]: 20 NMOL IN 0.2 ML ACETONE 1/WK FOR 10 WK, Promoter: 12-O-TETRADECANOYLPHORBOL-13-ACETATE, 16561-29-8", "value": "100%, 53%, 47%, not calculated"}, {"measurement": "tumour outcome (control, treated, inhibition, significance)", "setting": "Carcinogen: BENZO[A]PYRENE, 50-32-8, Dose [Inhibitor]: 0, 1 UMOL IN 0.2 ML ACETONE 2/WK FOR 20 WK ADMINISTERED CONCURRENTLY WITH PROMOTER (STUDY DURATION: 21 WK), Route [Inhibitor]: DERMAL, Species: MOUSE, Strain/Sex: CD-1/FEMALE, Target Tissue: Type of Lesion: SKIN: PAPILLOMA, Dose [Carcinogen]: 20 NMOL IN 0.2 ML ACETONE 1/WK FOR 10 WK, Promoter: 12-O-TETRADECANOYLPHORBOL-13-ACETATE, 16561-29-8", "value": "100%, 28%, 72%, not calculated"}]}
